Assay results from ChEMBL document CHEMBL1157413, “Pyronane monoterpenoids from the fruit of Gardenia jasminoides” (J Nat Prod, 2008).

Target: T1, Tyrosinase (Agaricus bisporus, UniProt O42713)
T1 sequence (O42713 whole entry): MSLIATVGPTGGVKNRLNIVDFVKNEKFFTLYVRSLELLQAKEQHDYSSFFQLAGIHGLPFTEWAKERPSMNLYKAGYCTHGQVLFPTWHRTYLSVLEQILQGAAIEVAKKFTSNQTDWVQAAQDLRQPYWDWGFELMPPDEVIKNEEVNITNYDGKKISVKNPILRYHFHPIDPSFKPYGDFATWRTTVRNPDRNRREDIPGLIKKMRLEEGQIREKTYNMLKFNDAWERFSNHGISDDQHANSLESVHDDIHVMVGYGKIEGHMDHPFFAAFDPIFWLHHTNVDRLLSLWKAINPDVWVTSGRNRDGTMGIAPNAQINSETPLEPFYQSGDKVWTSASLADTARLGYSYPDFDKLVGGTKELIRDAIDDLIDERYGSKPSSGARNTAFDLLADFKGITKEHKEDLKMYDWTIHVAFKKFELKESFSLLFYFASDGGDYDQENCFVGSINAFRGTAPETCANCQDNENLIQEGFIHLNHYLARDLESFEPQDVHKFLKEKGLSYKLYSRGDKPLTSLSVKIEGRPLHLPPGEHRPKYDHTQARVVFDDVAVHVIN
Description: Inhibition of mushroom tyrosinase activity after 10 mins

IC50: 2200 µM
Compound: CC1(C)CC(=O)C=C(CO)[C@H]1CO [JASMINODIOL]
